According to patent US7956077B2, “2-{-3,′2-(phenyl)-oxazol-4-ylmethoxyl-cyclohexyl methoxy}-propionic acid derivatives used as peroxisome proliferator-activated receptor (PPAR) ligands for the treatment of hyperlipidemia and diabetes” (Sanofi-Aventis Deutschland GmbH, priority 2004, dated 2011):
“And” between values parts separate entries of the source, which are not always exact repeats. Equal values may be shown once.

Tests used:
human PPARgamma = biological target: T1, human PPARgamma (Homo sapiens, UniProt P37231); test: Cellular PPARgamma assay (transiently transfected HEK cells, luciferase reporter); type: cell-based; conditions: HEK cells transiently transfected with GAL4-humanPPARgammaLBD, 48 h incubation
T1 construct: human PPARgamma receptor (amino acids 1152-Y475); expressed in transfected cells; host or cells: HEK cells, transiently transfected with pcDNA3-GAL4-humanPPARgammaLBD
T1 sequence (P37231 182-477 isoform P37231-2 limits assumed): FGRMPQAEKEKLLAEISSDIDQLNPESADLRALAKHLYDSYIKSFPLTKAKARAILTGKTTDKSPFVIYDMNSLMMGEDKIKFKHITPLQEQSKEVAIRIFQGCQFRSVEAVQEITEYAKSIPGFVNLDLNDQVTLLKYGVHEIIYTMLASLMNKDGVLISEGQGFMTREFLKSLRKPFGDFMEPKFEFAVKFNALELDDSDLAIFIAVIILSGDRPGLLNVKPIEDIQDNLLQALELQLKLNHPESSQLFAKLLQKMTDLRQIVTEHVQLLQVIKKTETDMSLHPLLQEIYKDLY
Source text: Determination of EC50 Values of PPAR Agonists in the Cellular PPARgamma Assay
A transient transfection system is employed to determine the cellular PPARgamma activity of PPAR agonists. It is based on the use of a luciferase reporter plasmid (pGL3basic-5×GAL4-TK) and of a PPARgamma expression plasmid (pcDNA3-GAL4-humanPPARgammaLBD). Both plasmids are transiently transfected into human mbryonic kidney cells (HEK cells). There is then expression in these cells of the usion protein GAL4-humanPPARgammaLBD which binds to the GAL4 binding sites of he reporter plasmid. In the presence of a PPARgamma-active ligand, the activated usion protein GAL4-humanPPARgammaLBD induces expression of the luciferase reporter gene, which can be detected in the form of a chemiluminescence signal after addition of a luciferase substrate. As a difference from the stably transfected PPARalpha reporter cell line, in the cellular PPARgamma assay the two components (luciferase reporter plasmid and PPARgamma expression plasmid) are transiently transfected into HEK cells because stable and permanent expression of the PPARgamma fusion protein is cytotoxic.
Construction of the Plasmids
The luciferase reporter plasmid pGL3basic-5×GAL4-TK is based on the vector pGL3basic from Promega. The reporter plasmid is prepared by cloning five binding sites of the yeast transcription factor GAL4 (each binding site with the sequence 5′-CTCGGAGGACAGTACTCCG-3′), together with a 160 bp-long thymidine kinase promoter section (Genbank Accession # AF027128) 5′-upstream into pGL3basic. 3′-downstream of the thymidine kinase promoter is the complete luciferase gene from Photinus pyralis (Genbank Accession # M15077), which is already a constituent of the plasmid pGL3basic used. The cloning and sequencing of the reporter plasmid pGL3basic-5×GAL4-TK took place in analogy to the description in Sambrook J. et. al. (Molecular cloning, Cold Spring Harbor Laboratory Press, 1989).
The PPARgamma expression plasmid pcDNA3-GAL4-humanPPARgammaLBD was prepared by first cloning the cDNA coding for amino acids 1-147 of the yeast transcription factor GAL4 (Genbank Accession # P04386) into the plasmid pcDNA3 (from Invitrogen) 3′-downstream of the cytomegalovirus promoter. Subsequently, the cDNA of the ligand-binding domain (LBD) of the human PPARgamma receptor (amino acids 1152-Y475; Accession # g1480099) 3′-downstream of the GAL4 DNA binding domain was cloned. Cloning and sequencing of the PPARgamma expression plasmid pcDNA3-GAL4-humanPPARgammaLBD again took place in analogy to the description in Sambrook J. et. al. (Molecular cloning, Cold Spring Harbor Laboratory Press, 1989). Besides the luciferase reporter plasmid pGL3basic-5×GAL4-TK and the PPARgamma expression plasmid pcDNA3-GAL4-humanPPARgammaLBD, also used for the cellular PPARgamma assay are the reference plasmid pRL-CMV (from Promega) and the plasmid pBluescript SK(+) from Stratagene. All four plasmids were prepared using a plasmid preparation kit from Qiagen, which ensured a plasmid quality with a minimal endotoxin content, before transfection into HEK cells.
The activity of PPARgamma agonists is determined in a 4-day assay which is described below. Before the transfection, HEK cells are cultivated in DMEM medium (#41965-039, Invitrogen) which is mixed with the following additions: 10% FCS (#16000-044, Invitrogen), 1% penicillin-streptomycin solution (#15140-122, Invitrogen) and 2 mM L-glutamine (#25030-024, Invitrogen).
Firstly, solution A, a transfection mixture which contains all four plasmids previously described in addition to DMEM medium, is prepared. […]

human PPARalpha = biological target: T2, human PPARalpha (Homo sapiens, UniProt Q07869); test: Cellular PPARalpha assay (stably transfected HEK luciferase reporter cell line); type: cell-based; conditions: PPARalpha reporter cell line (HEK, GR-GAL4-humanPPARalpha-LBD), 24 h incubation
T2 construct: human PPARalpha receptor (amino acids S167-Y468); expressed in transfected cells; host or cells: HEK cells, stably transfected (pcDNA3 construct)
T2 sequence (Q07869 167-468): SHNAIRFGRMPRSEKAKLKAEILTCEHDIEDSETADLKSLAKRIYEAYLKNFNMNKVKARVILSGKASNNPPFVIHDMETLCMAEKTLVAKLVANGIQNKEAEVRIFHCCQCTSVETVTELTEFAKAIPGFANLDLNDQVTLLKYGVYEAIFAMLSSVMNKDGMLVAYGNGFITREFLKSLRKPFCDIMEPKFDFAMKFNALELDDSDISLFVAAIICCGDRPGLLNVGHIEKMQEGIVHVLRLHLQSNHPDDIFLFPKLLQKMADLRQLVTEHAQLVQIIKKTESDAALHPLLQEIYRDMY
Procedure: Determination of EC50 Values of PPAR Agonists in the Cellular PPARalpha Assay
The potency of substances which bind to human PPARalpha and activate it in an agonistic manner is analyzed using a stably transfected HEK cell line (HEK=human embryo kidney) which is referred to here as PPARalpha reporter cell line. It contains two genetic elements, a luciferase reporter element (pdeltaM-GAL4-Luc-Zeo) and a PPARalpha fusion protein (GR-GAL4-humanPPARalpha-LBD) which mediates expression of the luciferase reporter element depending on a PPARalpha ligand. The stably and constitutively expressed fusion protein GR-GAL4-humanPPARalpha-LBD binds in the cell nucleus of the PPARalpha reporter cell line via the GAL4 protein portion to the GAL4 DNA binding motifs 5′-upstream of the luciferase reporter element which is stably integrated in the genome of the cell line. There is only little expression of the luciferase reporter gene without addition of a PPARalpha ligand if fatty acid-depleted fetal calf serum (cs-FCS) is used in the assay. PPARalpha ligands bind and activate the PPARalpha fusion protein and thereby bring about expression of the luciferase reporter gene. The luciferase which is formed can be detected by means of chemiluminescence via an appropriate substrate.
Construction of the Cell Line
The PPARalpha reporter cell line was prepared in two steps. Firstly, the luciferase reporter element was constructed and stably transfected into HEK cells. For this purpose, five binding sites of the yeast transcription factor GAL4 (in each case 5′-CGGAGTACTGTCCTCCGAG-3′) were cloned in 5′-upstream of a 68 bp-long minimal MMTV promoter (Genbank Accession # V01175). The minimal MMTV promoter section contains a CCAAT box and a TATA element in order to enable efficient transcription by RNA polymerase II. The cloning and sequencing of the GAL4-MMTV construct took place in analogy to the description of Sambrook J. et. al. (Molecular cloning, Cold Spring Harbor Laboratory Press, 1989). Then the complete Photinus pyralis luciferase gene (Genbank Accession # M15077) was cloned in 3′-downstream of the GAL4-MMTV element. After sequencing, the luciferase reporter element consisting of five GAL4 binding sites, MMTV promoter and luciferase gene was subcloned into a plasmid which confers zeozin resistance in order to obtain the plasmid pdeltaM-GAL4-Luc-Zeo. This vector was transfected into HEK cells in accordance with the statements in Ausubel, F. M. et al. (Current protocols in molecular biology, Vol. 1-3, John Wiley & Sons, Inc., 1995).
In a second step, the PPARalpha fusion protein (GR-GAL4-humanPPARalpha-LBD) was introduced into the stable cell clone described. For this purpose, initially the cDNA coding for the N-terminal 76 amino acids of the glucocorticoid receptor (Genbank Accession # P04150) was linked to the cDNA section coding for amino acids 1-147 of the yeast transcription factor GAL4 (Genbank Accession # P04386). The cDNA of the ligand-binding domain of the human PPARalpha receptor (amino acids S167-Y468; Genbank Accession # S74349) was cloned in at the 3′ end of this GR-GAL4 construct. The fusion construct prepared in this way (GR-GAL4-humanPPARalpha-LBD) was subcloned into the plasmid pcDNA3 (from Invitrogen) in order to enable constitutive expression therein by the cytomegalovirus promoter. This plasmid was linearized with a restriction endonuclease and stably transfected into the previously described cell clone containing the luciferase reporter element. The finished PPARalpha reporter cell line which contains a luciferase reporter element and constitutively expresses the PPARalpha fusion protein (GR-GAL4-humanPPARalpha-LBD) was isolated by selection with zeozin (0.5 mg/ml) and G418 (0.5 mg/ml).
The activity of PPARalpha agonists is determined in a 3-day assay which is described below: […]

EC50 (human PPARgamma) [µM]	EC50 (human PPARalpha)	Compound
0.15	0.0026 µM	CCc1oc(-c2ccc(CC(C)C)cc2)nc1CO[C@H]1CCC[C@@H](COC(C)(Cc2ccccc2)C(=O)O)C1 (mixture of isomers) [Example 18, 2-{(1R,3S)-3-[5-Ethyl-2-(4-isobutylphenyl)oxazol-4-ylmethoxy]cyclohexylmethoxy}-2-methyl-3-phenylpropionic acid]
–	0.00038 µM and 0.00053 µM	CCCC(C)(OC[C@@H]1CCC[C@H](OCc2nc(-c3ccc(C(C)C)cc3)oc2CC)C1)C(=O)O (mixture of isomers) [Example 14, 2-{(1R,3S)-3-[5-Ethyl-2-(4-isopropylphenyl)oxazol-4-ylmethoxy}cyclohexylmethoxy]-2-methylpentanoic acid]
0.67	0.019 µM	CCc1oc(-c2ccc(CC(C)C)cc2)nc1CO[C@H]1CCC[C@@H](COC(C)(C)C(=O)O)C1 [Example 3, 2-{(1R,3S)-3-[5-Ethyl-2-(4-isobutylphenyl)-oxazol-4-ylmethoxy]cyclohexylmethoxy}-2-methylpropionic acid]
0.51	0.00016 µM	CCc1oc(-c2ccc(C)cc2)nc1CO[C@H]1CCC[C@@H](COC(C)(Cc2ccccc2)C(=O)O)C1 (mixture of isomers) [Example 17, 2-[(1R,3S)-3-(5-Ethyl-2-p-tolyloxazol-4-ylmethoxy)cyclohexylmethoxy]-2-methyl-3-phenylpropionic acid]
0.87	0.0041 µM	CCCC(C)(OC[C@@H]1CCC[C@H](OCc2nc(-c3ccc(C)cc3)oc2CC)C1)C(=O)O (mixture of isomers) [Example 11, 2-[(1R,3S)-3-(5-Ethyl-2-p-tolyloxazol-4-ylmethoxy)cyclohexylmethoxy]-2-methyl-pentanoic acid]
0.075	0.012 µM	CCCC(C)(OC[C@@H]1CCC[C@H](OCc2nc(-c3ccc(CC(C)C)cc3)oc2CC)C1)C(=O)O (mixture of isomers) [Example 12, 2-{(1R,3S)-3-[5-Ethyl-2-(4-isobutylphenyl)oxazol-4-ylmethoxy]cyclohexylmethoxy}-2-methylpentanoic acid]
0.6	0.0058 µM	Cc1oc(-c2ccc3ccccc3c2)nc1CO[C@H]1CCC[C@@H](COC(C)(Cc2ccccc2)C(=O)O)C1 (mixture of isomers) [Example 21, 2-Methyl-2-{(1R,3S)-3-[5-methyl-2-(naphth-2-yl)oxazol-4-ylmethoxy]-cyclohexyimethoxy}-3-phenylpropionic acid]
0.4	0.017 µM	CCc1oc(-c2cccc(OC)c2)nc1CO[C@H]1CCC[C@@H](COC(C)(Cc2ccccc2)C(=O)O)C1 (mixture of isomers) [Example 16, 2-{(1R,3S)-3-[5-Ethyl-2-(3-methoxyphenyl)oxazol-4-ylmethoxy]cyclohexylmethoxy}-2-methyl-3-phenylpropionic acid]
1.1	0.002 µM	CCc1oc(-c2ccc3ccccc3c2)nc1CO[C@H]1CCC[C@@H](COC(C)(C)C(=O)O)C1 [Example 4, 2-{(1R,3S)-3-[5-Ethyl-2-(napth-2-yl)oxazol-4-ylmethoxy]cyclohexylmethoxy}-2-methylpropionic acid]
0.13	0.0066 µM	CCCC(C)(OC[C@@H]1CCC[C@H](OCc2nc(-c3ccc4ccccc4c3)oc2CC)C1)C(=O)O (mixture of isomers) [Example 13, 2-{(1R,3S)-3-[5-Ethyl-2-(naphth-2-yl)oxazol-4-ylmethoxy]cyclohexylmethoxy}-2-methylpentanoic acid]
0.93	0.045 µM	CCc1oc(-c2cccc(OC)c2)nc1CO[C@H]1CCC[C@@H](COC(C)(C)C(=O)O)C1 [Example 1, 2-{(1R,3S)-3-[5-ethyl-2-(3-methoxyphenyl)oxazol-4-ylmethoxy]cyclohexylmethoxy}-2-methylpropionic acid]
> 10	–	Cc1ccc(-c2nc(CO[C@H]3CCC[C@@H](COC(C)(C)C(=O)O)C3)c(C)o2)cc1 [*]
